This note sets out measurements from US20140350050A1, “PYRIDINE COMPOUNDS AS INHIBITORS OF KINASE” (TELIGENE LTD., priority 2011, published 2014).

A value given as a limit tells only on which side of the number the result lay.

Series [1] deals with T1, BAF3-EML4-ALK stable cell line (Homo sapiens, UniProt Q9UM73).
T1 construct: fused on or other part: Q9HC35 (Echinoderm microtubule-associated protein-like 4)
The experiment in a line: BAF3-EML4-ALK cell assay (MTT cell proliferation). The series is classed as cell-based. To be noted: 72 hours, read-out: BAF3-EML4-ALK Cell (IC50 grading). Here is the method:
BAF3-EML4-ALK Cell Assay:
A method of establishing BAF3-EML4-ALK stable cell line: Transfer 5×10^6 BAF3 cells to a new tube, pellet the cells, and remove PBS by aspiration.; Resuspend the cells in 1 ml electroporation buffer, this provides 5×10^6 of cells; Transfer 200 μl of cell suspension to EP tube, add 5 ug DNA, flip and place it on ice for 10 min; Pipet the 200 μl cell suspension into 2 mm electroporation cuvette; Place the cuvette into shockpod, close the lid, and press the PULSE button; Set parameters: Expentional decay pulse: VOL=200 V; CAP=900 uF, RES=1000Ω; Transfer all cells from electroporation cuvette to 6 well plate, adding 2 ml DMEMF12 containing 5 ng/ml IL3, 24 h later, replace the medium with DMEM F12 containing 2 μg/ml blasticidin S and 5 ng/ml IL3, maintain for 3 days; change the medium with DMEM F12 containing 2 ug/ml blasticidin S and 2.5 ng/ml IL3, maintain 3 days; change the medium with DMEM F12 containing 2 ug/Ml blasticidin S, maintain to culture.
MTT Cell proliferation assay: 5×10^3 per well cell with 100 μl medium was seeded in 96-well plate; 24 hours later, 100 μl fresh medium with various concentration of compounds; After the cells were treated by compounds for 72 hours, add 20 μl MTT (5 mg/ml) into each wells; The plate is incubated at 37° C. for 4 hours; Centrifuge the plate at 800 g for 10 mins, Aspirated the medium, add 150 μl DMSO into each well. Shake plates gently for 10 mins, Measure the absorbance at 570 nm on plate reader; IR=(WC−WT)/WC.

In series [2] the target is ALK kinase (Homo sapiens, UniProt Q9UM73). The experiment in a line: ALK kinase assay. The class given is biochemical. To be noted: ALK kinase assay; read-out: ALK (IC50 grading). Here is the method: An in vitro assay which determines the ability of a test compound to inhibit ALK kinase. a) kinase-tagged T7 phage strains were prepared in an E. coli host derived from the BL21 strain. E. coli were grown to log-phase and infected with T7 phage and incubated with shaking at 32° C. until lysis. The lysates were centrifuged and filtered to remove cell debris. The remaining kinases were produced in HEK-293 cells and subsequently tagged with DNA for qPCR detection. […] The liganded beads were blocked with excess biotin and washed with blocking buffer (SeaBlock (Pierce), 1% BSA, 0.05% Tween 20, 1 mM DTT) to remove unbound ligand and to reduce non-specific binding. […] All reactions were performed in polystyrene 96-well plates in a final volume of 0.135 ml. […] The kinase concentration in the eluates was measured by qPCR. […]
Sequence of ALK kinase (Q9UM73 19-1620): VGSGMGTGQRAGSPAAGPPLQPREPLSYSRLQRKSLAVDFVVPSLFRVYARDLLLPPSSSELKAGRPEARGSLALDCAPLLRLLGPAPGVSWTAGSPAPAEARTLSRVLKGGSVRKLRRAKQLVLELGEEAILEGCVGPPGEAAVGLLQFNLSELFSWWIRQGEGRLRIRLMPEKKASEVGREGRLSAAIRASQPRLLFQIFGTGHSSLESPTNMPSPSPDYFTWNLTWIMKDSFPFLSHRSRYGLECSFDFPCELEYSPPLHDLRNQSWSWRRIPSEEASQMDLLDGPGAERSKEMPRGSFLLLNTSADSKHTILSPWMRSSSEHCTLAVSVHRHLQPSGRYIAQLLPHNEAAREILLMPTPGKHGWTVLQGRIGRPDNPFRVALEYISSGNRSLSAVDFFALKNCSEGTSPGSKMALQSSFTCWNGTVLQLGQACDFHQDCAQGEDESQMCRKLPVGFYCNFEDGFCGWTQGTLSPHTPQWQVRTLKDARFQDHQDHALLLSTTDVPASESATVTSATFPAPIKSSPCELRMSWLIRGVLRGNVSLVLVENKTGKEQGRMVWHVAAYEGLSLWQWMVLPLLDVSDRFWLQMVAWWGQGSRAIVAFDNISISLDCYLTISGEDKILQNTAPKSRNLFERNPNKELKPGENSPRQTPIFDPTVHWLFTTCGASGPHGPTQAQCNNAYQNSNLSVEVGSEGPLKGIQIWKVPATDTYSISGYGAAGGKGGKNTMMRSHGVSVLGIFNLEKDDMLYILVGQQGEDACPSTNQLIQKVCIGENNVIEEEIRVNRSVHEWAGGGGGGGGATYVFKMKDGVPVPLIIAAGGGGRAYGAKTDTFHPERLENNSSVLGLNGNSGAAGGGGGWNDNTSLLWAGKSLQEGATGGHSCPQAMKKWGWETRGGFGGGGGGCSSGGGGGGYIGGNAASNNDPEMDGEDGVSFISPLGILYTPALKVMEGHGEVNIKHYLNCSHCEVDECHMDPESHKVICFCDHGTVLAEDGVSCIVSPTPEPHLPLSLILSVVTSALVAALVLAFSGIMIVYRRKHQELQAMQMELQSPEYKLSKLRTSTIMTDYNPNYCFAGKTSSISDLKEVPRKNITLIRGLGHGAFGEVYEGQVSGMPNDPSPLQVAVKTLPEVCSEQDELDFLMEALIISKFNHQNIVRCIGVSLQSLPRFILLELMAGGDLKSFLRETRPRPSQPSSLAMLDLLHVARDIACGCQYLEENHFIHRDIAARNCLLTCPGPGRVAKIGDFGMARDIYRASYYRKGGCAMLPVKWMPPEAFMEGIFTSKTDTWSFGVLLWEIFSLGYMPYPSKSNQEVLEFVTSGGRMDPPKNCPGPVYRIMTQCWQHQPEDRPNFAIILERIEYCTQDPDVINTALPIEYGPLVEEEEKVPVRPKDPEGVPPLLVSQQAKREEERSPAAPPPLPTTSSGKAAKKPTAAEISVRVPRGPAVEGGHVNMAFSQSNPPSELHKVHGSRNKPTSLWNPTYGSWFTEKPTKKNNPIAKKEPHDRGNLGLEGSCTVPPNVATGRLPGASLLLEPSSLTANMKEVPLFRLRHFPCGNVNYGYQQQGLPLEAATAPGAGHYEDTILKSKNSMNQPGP
b) An alternative method to conduct the kinase assay with the following condition and procedure: Reagent: Base Reaction buffer; 20 mM Hepes (pH 7.5), 10 mM MgCl2, 1 mM EGTA, 0.02% Brij35, 0.02 mg/ml BSA, 0.1 mM Na3VO4, 2 mM DTT, 1% DMSO.
1. Preparing indicated substrate in freshly prepared Base Reaction Buffer
2. Delivering any required cofactors to the substrate solution above
3. Delivering indicated kinase into the substrate solution and gently mix
4. Delivering compounds in DMSO into the kinase reaction mixture
5. Delivering ^33P-ATP (specific activity 0.01 μCi/μl final) into the reaction mixture to initiate the reaction.
6. Incubating kinase reaction for 120 min. at room temperature
7. Reactions are spotted onto P81 ion exchange paper (Whatman #3698-915)
8. Washing filters extensively in 0.75% Phosphoric acid. […]
c) An alternative method to conduct the kinase assay with the following condition and procedure: The assay was performed using Kinase-Glo Plus luminescence kinase assay kit (Promega). It measures kinase activity by quantitating the amount of ATP remaining in solution following a kinase reaction. The luminescent signal from the assay is correlated with the amount of ATP present and is inversely correlated with the amount of kinase activity.
The compound were diluted in 10% DMSO and 5 μl of the dilution was added to a 50 μl reaction so that the final concentration of DMSO is 1% in all of reactions. All of the enzymatic reactions were conducted at 30° C. for 40 minutes. The 50 μl reaction mixture contains 40 mM Tris, pH 7.4, 10 mM MgCl2, 0.1 mg/ml BSA, 1 mM DTT, 0.2 mg/ml substrate peptide, 10 μM ATP and ALK (Table 2.3.1). After the enzymatic reaction, 50 μl of Kinase-Glo Plus Luminescence kinase assay solution (Promega) was added to each reaction and incubate the plate for 5 minutes at room temperature. Luminescence signal was measured using a BioTek Synergy 2 microplate reader. ALK activity assays were performed in duplicate at each concentration. The luminescence data were analyzed using the computer software, Graphpad Prism. The difference between luminescence intensities in the absence of ALK (Lut) and in the presence of ALK (Luc) was defined as 100% activity (Lut−Luc). Using luminescence signal (Lu) in the presence of the compound, % activity was calculated as % activity={(Lut−Lu)/(Lut−Luc)}×100%, where Lu=the luminescence intensity in the presence of the compound (all percent activities below zero were shown zero in the table). The values of % activity versus a series of compound concentrations were then plotted using non-linear regression analysis of Sigmoidal dose-response curve generated with the equation Y=B+(T−B)/1+10^((Log EC50−X)×Hill Slope), where Y=percent activity, B=minimum percent activity, T=maximum percent activity, X=logarithm of compound and Hill Slope=slope factor or Hill coefficient. The IC50 value was determined by the concentration causing a half-maximal percent activity.

Series [3] is described as follows: PK (pharmacokinetic) study in rat, cassette dosing. The series is classed as in vivo. To be noted: male, Wistar, plasma. On the procedure:
A representative protocol for the PK (pharmacokinetic) is as followed: Animals used were Wistar rat, male and weight about 300-359 grams. Compound 21 and 22 were given either IV or oral to the same animals by cassette dosing. The dose for each compound is 1 mg/kg (volume 5 ml/kg) IV and 2 mg/kg (volume 10 ml/kg) oral. The formulation for IV was in PBS, the pH is adjusted by dilute HCl until compounds were totally dissolved. 0.5% Na-CMC suspension was used for the oral formulation. Sample collection: for IV route, plasma sample were collected at the time point 0.083, 0.25, 0.5, 1, 1.5, 2, 4, 6, 8, 12, 24 h. For oral route, plasma sample were collected at the time point 0.167, 0.33, 0.5, 1, 2, 4, 6, 8, 12, 24 h. Analysis: LC-MS/MS is used to calculate PK parameters: t1/2, tmax, Cmax, Vss and AUC etc.

As usually defined, the IC50 is the concentration that gives 50% inhibition. By AUC(0-inf) is commonly meant total exposure, with the tail of the curve extrapolated. Lower therefore signals low exposure. What is called AUC(0-t) is exposure summed from dosing to a finite time, without extrapolation to infinity. Usually Cmax stands for the highest concentration seen after dosing. Broadly, the MRT is the average time that molecules of a dose stay in the body. A word on the Tmax: it is the time at which the peak concentration occurs. By clearance is commonly meant the volume of plasma or blood freed of the substance per unit of time. A high value points to efficient removal. Usually half-life stands for the time in which the quantity being followed falls by half. High values mean slow loss, low ones fast loss. The bioavailability is dose-corrected exposure relative to a reference, in per cent.

T1 sequence (Q9UM73 whole entry, change not shown, the tested form may be a part): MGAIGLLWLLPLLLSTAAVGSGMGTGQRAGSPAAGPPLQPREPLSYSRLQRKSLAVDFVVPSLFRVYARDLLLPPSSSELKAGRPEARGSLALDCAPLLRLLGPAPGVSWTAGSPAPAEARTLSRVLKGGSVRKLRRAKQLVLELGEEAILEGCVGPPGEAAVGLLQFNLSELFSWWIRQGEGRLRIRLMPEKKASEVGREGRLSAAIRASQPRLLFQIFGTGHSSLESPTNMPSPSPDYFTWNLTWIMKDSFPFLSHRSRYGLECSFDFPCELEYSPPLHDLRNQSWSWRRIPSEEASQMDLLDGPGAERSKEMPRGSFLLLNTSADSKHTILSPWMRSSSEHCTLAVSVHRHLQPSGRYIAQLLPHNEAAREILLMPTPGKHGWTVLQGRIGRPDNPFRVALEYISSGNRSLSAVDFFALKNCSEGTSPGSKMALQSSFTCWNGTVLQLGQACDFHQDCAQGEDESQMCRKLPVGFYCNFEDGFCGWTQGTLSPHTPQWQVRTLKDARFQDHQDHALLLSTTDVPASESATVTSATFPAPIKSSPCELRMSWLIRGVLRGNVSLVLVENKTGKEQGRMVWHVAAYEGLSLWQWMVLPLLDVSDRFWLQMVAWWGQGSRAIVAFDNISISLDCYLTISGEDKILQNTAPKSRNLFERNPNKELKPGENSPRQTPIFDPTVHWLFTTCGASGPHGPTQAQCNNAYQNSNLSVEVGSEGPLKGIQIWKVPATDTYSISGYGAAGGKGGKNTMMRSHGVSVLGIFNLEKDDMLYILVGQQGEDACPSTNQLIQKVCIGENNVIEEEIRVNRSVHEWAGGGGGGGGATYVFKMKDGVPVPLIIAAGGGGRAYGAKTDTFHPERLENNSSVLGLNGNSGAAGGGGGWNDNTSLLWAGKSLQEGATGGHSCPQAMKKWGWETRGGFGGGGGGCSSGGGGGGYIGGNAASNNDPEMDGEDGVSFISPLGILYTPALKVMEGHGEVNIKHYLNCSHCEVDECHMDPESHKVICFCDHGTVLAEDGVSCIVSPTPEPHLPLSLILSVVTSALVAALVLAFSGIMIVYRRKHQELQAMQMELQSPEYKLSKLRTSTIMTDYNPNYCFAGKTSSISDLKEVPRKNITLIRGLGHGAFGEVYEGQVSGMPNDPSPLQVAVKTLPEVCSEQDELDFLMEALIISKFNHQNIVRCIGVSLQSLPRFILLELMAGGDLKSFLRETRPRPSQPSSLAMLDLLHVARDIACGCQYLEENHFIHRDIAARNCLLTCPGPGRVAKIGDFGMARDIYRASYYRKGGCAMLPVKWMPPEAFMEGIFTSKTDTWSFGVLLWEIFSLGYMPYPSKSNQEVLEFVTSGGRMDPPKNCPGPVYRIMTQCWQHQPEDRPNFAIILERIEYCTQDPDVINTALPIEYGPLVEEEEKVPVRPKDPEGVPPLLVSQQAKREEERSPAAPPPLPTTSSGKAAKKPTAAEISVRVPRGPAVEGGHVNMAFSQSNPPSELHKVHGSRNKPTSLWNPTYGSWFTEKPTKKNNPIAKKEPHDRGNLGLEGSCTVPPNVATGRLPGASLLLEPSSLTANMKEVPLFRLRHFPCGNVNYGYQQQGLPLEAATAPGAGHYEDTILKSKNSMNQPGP

For the compound `CCN1CCC(n2cc(-c3cnc(N)c(OC(C)c4c(Cl)ccc(F)c4Cl)c3)cn2)CC1` (centres unmarked) [Compound 7, 3-(1-(2,6-dichloro-3-fluorophenyl)ethoxy)-5-(1-(1-ethylpiperidin-4-yl)-1H-pyrazol-4-yl)pyridin-2-amine], in series [1], the GI50 was no more than 100 nM. For the same compound, the IC50 in series [2] was no more than 100 nM.

With `CC(=O)Nc1ncc(-c2cnn(C3CCNCC3)c2)cc1OC(C)c1c(Cl)ccc(F)c1Cl` (centres unmarked) [Compound 9, N-(3-(1-(2,6-dichloro-3-fluorophenyl)ethoxy)-5-(1-(piperidin-4-yl)-1H-pyrazol-4-yl)pyridin-2-yl)acetamide], in series [1], the GI50 was no more than 100 nM. Besides, the concentration for half-maximal inhibition (IC50) in series [2] is no more than 100 nM.

As to `CCN1CCC(n2cc(-c3cnc(NC(C)=O)c(OC(C)c4c(Cl)ccc(F)c4Cl)c3)cn2)CC1` (centres unmarked) [Compound 10, N-(3-(1-(2,6-dichloro-3-fluorophenyl)ethoxy)-5-(1-(1-ethylpiperidin-4-yl)-1H-pyrazol-4-yl)pyridin-2-yl)acetamide], the GI50 in series [1] lay in the range of 100 to 1000 nM. In series [2], the IC50 is 100 to 1000 nM.

`CCNc1ncc(-c2cnn(C3CCNCC3)c2)cc1OC(C)c1c(Cl)ccc(F)c1Cl` (centres unmarked) [Compound 11, 3-(1-(2,6-dichloro-3-fluorophenyl)ethoxy)-N-ethyl-5-(1-(piperidin-4-yl)-1H-pyrazol-4-yl)pyridin-2-amine]: the GI50 in series [1] was no more than 1000 nM. Moreover, in series [2], the 50% inhibitory concentration (IC50) is no more than 1000 nM.

As to `CCCNc1ncc(-c2cnn(C3CCNCC3)c2)cc1OC(C)c1c(Cl)ccc(F)c1Cl` (centres unmarked) [Compound 12, 3-(1-(2,6-dichloro-3-fluorophenyl)ethoxy)-5-(1-(piperidin-4-yl)-1H-pyrazol-4-yl)-N-propylpyridin-2-amine], in series [1], the GI50 is no more than 1000 nM. Also, the IC50 in series [2] was no more than 1000 nM.

`CC(=O)Nc1ncc(-c2cnn(C3CCNCC3)c2)cc1O[C@@H](C)c1c(Cl)ccc(F)c1Cl` [Compound 13, (S)—N-(3-(1-(2,6-dichloro-3-fluorophenyl)ethoxy)-5-(1-(piperidin-4-yl)-1H-pyrazol-4-yl)pyridin-2-yl)acetamide]: the GI50 in series [1] is no more than 1000 nM. For the same compound, the half-maximal inhibitory concentration (IC50) in series [2] lay within 100 to 1000 nM.

Take `C[C@H](Oc1cc(-c2cnn(C3CCN(C)CC3)c2)cnc1N)c1c(Cl)ccc(F)c1Cl` [Compound 14, (S)-3-(1-(2,6-dichloro-3-fluorophenyl)ethoxy)-5-(1-(1-methylpiperidin-4-yl)-1H-pyrazol-4-yl)pyridin-2-amine]: the GI50 in series [1] was no more than 1000 nM. The IC50 in series [2] lay in the range of 100 to 1000 nM.

For the compound `[2H]C([2H])([2H])N1CCC(n2cc(-c3cnc(N)c(O[C@@H](C)c4c(Cl)ccc(F)c4Cl)c3)cn2)CC1` [Compound 15, (S)-3-(1-(2,6-dichloro-3-fluorophenyl)ethoxy)-5-(1-(1-d3-methyl-piperidin-4-yl)-1H-pyrazol-4-yl)pyridin-2-amine], in series [1], the GI50 was no more than 1000 nM. The IC50 in series [2] was in the range of 100 to 1000 nM.

Take `CCN1CCC(n2cc(-c3cnc(N)c(O[C@@H](C)c4c(Cl)ccc(F)c4Cl)c3)cn2)CC1` [Compound 16, (S)-3-(1-(2,6-dichloro-3-fluorophenyl)ethoxy)-5-(1-(1-ethylpiperidin-4-yl)-1H-pyrazol-4-yl)pyridin-2-amine]: in series [1], the GI50 is no more than 1000 nM. Also, the concentration for half-maximal inhibition (IC50) in series [2] is 100 to 1000 nM.

For the compound `[2H]C([2H])([2H])C([2H])([2H])N1CCC(n2cc(-c3cnc(N)c(O[C@@H](C)c4c(Cl)ccc(F)c4Cl)c3)cn2)CC1` [Compound 17, (S)-3-(1-(2,6-dichloro-3-fluorophenyl)ethoxy)-5-(1-(1-d5-ethyl-piperidin-4-yl)-1H-pyrazol-4-yl)pyridin-2-amine], the GI50 in series [1] was no more than 1000 nM. The IC50 in series [2] fell in the range of 100 to 1000 nM.

As for `C[C@@H](Oc1cc(-c2cnn(C3CCN(C)CC3)c2)cnc1N)c1c(Cl)ccc(F)c1Cl` [Compound 19, (R)-3-(1-(2,6-dichloro-3-fluorophenyl)ethoxy)-5-(1-(1-methylpiperidin-4-yl)-1H-pyrazol-4-yl)pyridin-2-amine], the GI50 in series [1] was no more than 100 nM. In addition, in series [2], the IC50 was no more than 100 nM.

As for `CCN1CCC(n2cc(-c3cnc(N)c(O[C@H](C)c4c(Cl)ccc(F)c4Cl)c3)cn2)CC1` [Compound 21, (R)-3-(1-(2,6-dichloro-3-fluorophenyl)ethoxy)-5-(1-(1-ethylpiperidin-4-yl)-1H-pyrazol-4-yl)pyridin-2-amine], the GI50 in series [1] was no more than 100 nM. In series [3] (IV cassette 1 mg/kg), this compound returned an AUC(0-inf) of 443 ng·h/mL, an AUC(0-t) of 442 ng·h/mL, a Cmax of 317 ng/mL and a mean residence time (MRT) of 2.89 h. In addition, in series [3] (IV cassette 1 mg/kg), the time to peak (Tmax) was 0.083 h, the clearance was 37.7 mL/min/kg and the half-life was 2.89 h. In series [3] (oral cassette 2 mg/kg), this compound gave an AUC(0-inf) of 154 ng·h/mL, an AUC(0-t) of 148 ng·h/mL, a Cmax of 22.9 ng/mL and an MRT of 4.97 h. Further, in series [3] (oral cassette 2 mg/kg), the Tmax was 4 h and the half-life was 2.99 h. The bioavailability in series [3] (oral cassette 2 mg/kg vs IV 1 mg/kg, read-out: F (bioavailability)) amounted to 16.8%. Further, in series [2], the IC50 is no more than 100 nM.
